In publication PMC5584945, “Evaluation of robenidine analog NCL195 as a novel broad-spectrum antibacterial agent” (PLoS ONE, 2017):

What was measured:
[1] = Pharmacokinetics after IP administration; format: in vivo, mouse; details: mice, IP 43 mg/kg
Experimental: Mice had access to food and water ad libitum throughout the pre- and post-dose sampling period. The Animal Ethics Committee of the Monash Institute of Pharmaceutical Sciences reviewed and approved all animal PK experiments (approval number MIPS.2013.33). The PK studies were conducted in compliance with the Australian Code of Practice for the Care and Use of Animals for Scientific Purposes (7th Edition 2004). […] For both the IV and IP administration, a maximum of two samples were obtained from each mouse, with samples being taken either via submandibular bleed (approximately 120 μl; conscious sampling) or terminal cardiac puncture (0.6 ml; under inhaled Isoflurane anesthesia). No urine samples were collected as mice were housed in bedded cages during the study. […] Mice were humanely sacrificed by cervical dislocation while under anaesthesia (using gaseous isoflurane) at the end of experiments. Blood was collected directly into polypropylene Eppendorf tubes containing heparin as anti-coagulant, and stabilization cocktail (containing Complete (a protease inhibitor cocktail with EDTA) and potassium fluoride) to minimize the potential for ex vivo degradation of the test compounds in blood/plasma samples. Once collected, blood samples were centrifuged immediately, supernatant plasma was removed, and stored at either -80°C (for the IV exposure) or at -20°C (for the IP exposure) until analysis by liquid chromatography-mass spectrometry (LC-MS). Following protein precipitation with acetonitrile, thawed plasma samples were analyzed by LC-MS (Waters Micromass Quattro Premier coupled to a Waters Acquity UPLC) using positive electrospray ionization operating in MRM mode.

S. aureus ATCC 29213 = assay: Macromolecular synthesis inhibition; format: cell-based, Staphylococcus aureus; details: 0.25 to 8-fold MIC; exponentially growing culture
Experimental: Morphological appearance and morphometric analysis of the cell membrane of S. pneumoniae D39 after exposure to either 1 μg/ml, 4 μg/ml or 16 μg/ml of NCL812 was determined using TEM, as described in S1 File (Supplementary Methods). For S. aureus ATCC 29213, macromolecular (DNA, RNA, protein, cell wall, and lipid) synthesis inhibition studies were performed using concentrations of NCL812 that were equivalent to 0, 0.25, 0.5, 1, 2, 4 or 8-fold the MIC value (4 μg/ml), as detailed in S1 File (Supplementary Methods).
Effect of NCL812 on S. aureus ATCC29213 macromolecular synthesis. […]
A 5% DMSO treated culture served as the “no drug” control for all experiments. […] After washing three times with 5 ml of cold 5% TCA, the filters were rinsed two times with 5 ml 100% ethanol, allowed to dry, and then counted using a Beckman LS3801 liquid scintillation counter.
To test the effect of NCL812 on cell wall synthesis, bacteria were transferred to M9 minimal medium and added to 1.5 ml eppendorf tubes (100 μl/tube) containing various concentrations of test compound or control antibiotics (5 μl) at 20X the final concentration in 100% DMSO as described above. […] After washing three times with 5 ml of 0.1% SDS, the filters were rinsed two times with 5 ml of deionized water, allowed to dry, and then counted using a Beckman LS3801 liquid scintillation counter. […]

For Cc1ccc(/C=N/Nc2cc(N/N=C/c3ccc(C)cc3)nc(N)n2)cc1 [NCL195, 4,6-bis(2-((E)-4-methylbenzylidene)hydrazinyl)pyrimidin-2-amine], the “Adverse reactions after IP administration” value [1] was “No adverse reactions or compound-related side effects were observed”, the Plasma concentration ([1]; between 7.5 and 24 h post-dose) was 200 to 500 ng/mL and the Plasma concentration ([1]; initial 7.5 h post-dose) was 3000 to 4000 ng/mL.
In the case of Cl.N=C(NN=Cc1ccc(Cl)cc1)NN=Cc1ccc(Cl)cc1 [NCL812, 2,2'-bis[(4-chlorophenyl)methylene] carbonimidic dihydrazide hydrochloride], the “Effect on macromolecular synthesis pathways” value (S. aureus ATCC 29213) is reported as “inhibited DNA (A), RNA (B), protein (C), cell wall (D), and lipid (E) pathways”.
